Read-outs that look alike come from different tables or passages of the source.
Assays:
Format in all cases: cell-based
[1] = tested on: NCI-H358 (human lung cancer); test: cells; details: Table 4; NCI-H358 human lung cancer cells; read-out: IC50 (nM) NCI-H358
[2] = tested on: MIA PaCa-2 (human pancreatic cancer); test: cells; details: for MIA PaCa-2 SI: selectivity coefficient vs normal BALB/3T3 cells
Hs294T (human melanoma) = test: cells; details: for IC50: Hs 294T; for Hs294T SI: selectivity coefficient vs normal BALB/3T3 cells
[3] = tested on: SNU-16 (human gastric cancer); test: cells; details: for SNU-16 SI: selectivity coefficient vs normal BALB/3T3 cells
[4] = tested on: PLC/PRF/5 (human liver cancer); test: cells; details: for PLC/PRF/5 SI: selectivity coefficient vs normal BALB/3T3 cells
[5] = tested on: A2780Cis (cisplatin-resistant human ovarian cancer); test: In vitro cytotoxicity, SRB assay, A2780Cis; details: for IC50: Homo sapiens, A2780cis, 72 h, read-out: A2780Cis IC50 (nM)
A375 (human melanoma) = test: In vitro cytotoxicity, SRB assay, A375; details: for IC50: Homo sapiens, A-375, 72 h with compound, SRB, n/a = non-active compound, read-out: A375 IC50; for A375 SI: selectivity coefficient vs normal BALB/3T3 cells
[6] = tested on: KG-1 (human acute myeloid leukaemia); test: In vitro cytotoxicity, MTT assay, KG-1; details: for IC50: Homo sapiens, 72 h with compound, MTT, n/a = non-active compound; for KG-1 SI: selectivity coefficient vs normal BALB/3T3 cells
[7] = tested on: PFSK-1 (malignant primitive neuroectodermal tumour); test: In vitro cytotoxicity, SRB assay, PFSK-1; details: for IC50: Homo sapiens, PFSK-1, 72 h with compound, SRB, n/a = non-active compound, read-out: PFSK-1 IC50; for PFSK-1 SI: selectivity coefficient vs normal BALB/3T3 cells
[8] = tested on: NCI-H23 (human lung cancer); test: In vitro cytotoxicity, SRB assay, NCI-H23; details: for IC50: Homo sapiens, NCI-H23, 72 h with compound, SRB, n/a = non-active compound, read-out: NCI-H23 IC50; for NCI-H23 SI: selectivity coefficient vs normal BALB/3T3 cells
[9] = tested on: BALB/3T3 (normal mouse fibroblasts); test: In vitro cytotoxicity, SRB assay, normal BALB/3T3 fibroblasts; details: Mus musculus, BALB/3T3; normal cells; 72 h with compound, SRB; n/a = non-active compound; read-out: BALB/3T3 IC50
[10] = tested on: A2780 (human ovarian cancer); test: In vitro cytotoxicity, SRB assay, A2780; details: for IC50: Homo sapiens, A2780, 72 h with compound, SRB, n/a = non-active compound, read-out: A2780 IC50; for A2780 SI: selectivity coefficient vs normal BALB/3T3 cells
[11] = Table 4, MIA PaCa-2 human pancreatic cancer cells, read-out: IC50 (nM) MIA PaCa-2
[12] = Table 4, Hs294T human melanoma cells, read-out: IC50 (nM) Hs294T
[13] = Table 4, SNU-16 human gastric cancer cells, read-out: IC50 (nM) SNU-16
[14] = Table 4, PLC/PRF/5 human liver cancer cells, read-out: IC50 (nM) PLC/PRF/5
[15] = Homo sapiens, MIA PaCa-2, 72 h with compound, SRB, n/a = non-active compound, read-out: MIA PaCa-2 IC50
[16] = Homo sapiens, 72 h with compound, SRB, n/a = non-active compound, read-out: Hs294T IC50
[17] = Homo sapiens, SNU-16, 72 h with compound, MTT, n/a = non-active compound, read-out: SNU-16 IC50
[18] = Homo sapiens, PLC-PRF-5, 72 h with compound, SRB, n/a = non-active compound, read-out: PLC/PRF/5 IC50

Structure (SMILES) | A2780Cis RI [5] | A2780Cis SI [5] | IC50 [5] [nM] | IC50 (A375 (human melanoma)) [nM] | A375 SI (A375 (human melanoma)) | IC50 [6] [nM] | KG-1 SI [6] | IC50 [2, 15] [nM] | MIA PaCa-2 SI [2] | IC50 (Hs294T (human melanoma); [16]) [nM] | Hs294T SI (Hs294T (human melanoma)) | IC50 [3, 17] [nM] | SNU-16 SI [3] | IC50 [4, 18] [nM] | PLC/PRF/5 SI [4] | IC50 [7] [nM] | PFSK-1 SI [7] | IC50 [8] [nM] | NCI-H23 SI [8] | IC50 [9] [nM] | other results
C=CCOC(=O)N[C@@H]1C=C[C@]2(O[C@H]([C@@H](CC)C(=O)[C@@H](C)[C@@H](O)[C@H](C)[C@@H]3O[C@@H]([C@@H](CC)C(=O)O)CC[C@@H]3C)[C@@H](C)C[C@H]2C)O[C@@]12CC[C@@](C)([C@H]1CC[C@](O)(CC)[C@H](C)O1)O2 [FLC-00425-1•Na] | – | – | – | – | – | – | – | – | – | – | – | – | – | – | – | – | – | – | – | – | IC50 [1]: 234 nM; IC50 [2, 11]: 269 nM; IC50 (Hs294T (human melanoma); [12]): 362 nM; IC50 [3, 13]: 420 nM; IC50 [4, 14]: 26.5 nM
CC[C@@H](C(=O)[C@@H](C)[C@@H](O)[C@H](C)[C@@H]1O[C@@H]([C@@H](CC)C(=O)O)CC[C@@H]1C)[C@H]1O[C@]2(C=C[C@@H](NC(=O)Oc3ccccc3)[C@]3(CC[C@@](C)([C@H]4CC[C@](O)(CC)[C@H](C)O4)O3)O2)[C@H](C)C[C@@H]1C [FLC-00429-1•Na] | – | – | – | – | – | – | – | – | – | – | – | – | – | – | – | – | – | – | – | – | IC50 [1]: 76.1 nM; IC50 [2, 11]: 39.8 nM; IC50 (Hs294T (human melanoma); [12]): 115 nM; IC50 [3, 13]: 168 nM; IC50 [4, 14]: 27 nM
CC[C@@H](C(=O)[C@@H](C)[C@@H](O)[C@H](C)[C@@H]1O[C@@H]([C@@H](CC)C(=O)O)CC[C@@H]1C)[C@H]1O[C@]2(C=C[C@@H](NC(=O)OCc3ccccc3)[C@]3(CC[C@@](C)([C@H]4CC[C@](O)(CC)[C@H](C)O4)O3)O2)[C@H](C)C[C@@H]1C [FLC-00431-1•Na] | – | – | – | – | – | – | – | – | – | – | – | – | – | – | – | – | – | – | – | – | IC50 [1]: 56.1 nM; IC50 [2, 11]: 28.9 nM; IC50 (Hs294T (human melanoma); [12]): 115 nM; IC50 [3, 13]: 143 nM; IC50 [4, 14]: 5.8 nM
CC[C@@H](C(=O)[C@@H](C)[C@@H](O)[C@H](C)[C@@H]1O[C@@H]([C@@H](CC)C(=O)O)CC[C@@H]1C)[C@H]1O[C@]2(C=C[C@@H](NC(=S)NC(C)C)[C@]3(CC[C@@](C)([C@H]4CC[C@](O)(CC)[C@H](C)O4)O3)O2)[C@H](C)C[C@@H]1C [FLC-00387-1] | – | – | – | – | – | – | – | – | – | – | – | – | – | – | – | – | – | – | – | – | IC50 [1]: 44.4 nM; IC50 [2, 11]: 9.71 nM; IC50 (Hs294T (human melanoma); [12]): 162 nM; IC50 [3, 13]: 10.2 nM; IC50 [4, 14]: 0.7 nM
CC[C@@H](C(=O)[C@@H](C)[C@@H](O)[C@H](C)[C@@H]1O[C@@H]([C@@H](CC)C(=O)O)CC[C@@H]1C)[C@H]1O[C@]2(C=C[C@@H](NC(=S)NCC(C)C)[C@]3(CC[C@@](C)([C@H]4CC[C@](O)(CC)[C@H](C)O4)O3)O2)[C@H](C)C[C@@H]1C [FLC-00369-1] | 0.4 | 44.8 | 1.84 | 49.6 | 1.7 | 11.7 | 7.1 | 44.7 | 1.8 | 106 | 0.8 | 16 | 5.1 | 12.4 | 6.6 | 5.84 | 14.1 | 5.98 | 13.8 | 82.3 | IC50 [10]: 5.08 nM; A2780 SI [10]: 16.2
CC[C@@H](C(=O)[C@@H](C)[C@@H](O)[C@H](C)[C@@H]1O[C@@H]([C@@H](CC)C(=O)O)CC[C@@H]1C)[C@H]1O[C@]2(C=C[C@@H](NC(=O)NCc3ccccc3)[C@]3(CC[C@@](C)([C@H]4CC[C@](O)(CC)[C@H](C)O4)O3)O2)[C@H](C)C[C@@H]1C [FLC-00337-1] | 0.6 | 61.5 | 1.98 | 296 | 0.4 | 122 | 1.0 | 56 | 2.2 | 549 | 0.2 | 21.4 | 5.7 | 41.4 | 2.9 | 19.4 | 6.3 | 445 | 0.3 | 122 | IC50 [10]: 3.1 nM; A2780 SI [10]: 39.2
CC[C@@H](C(=O)[C@@H](C)[C@@H](O)[C@H](C)[C@@H]1O[C@@H]([C@@H](CC)C(=O)O)CC[C@@H]1C)[C@H]1O[C@]2(C=C[C@@H](NC(=O)Nc3ccc(OC)cc3)[C@]3(CC[C@@](C)([C@H]4CC[C@](O)(CC)[C@H](C)O4)O3)O2)[C@H](C)C[C@@H]1C [FLC-00371-1] | 0.1 | 413.4 | 0.22 | 43.3 | 2.1 | 22.1 | 4.2 | 31.3 | 3.0 | 67.7 | 1.4 | 14.8 | 6.2 | 12.8 | 7.2 | 5.13 | 18.0 | 4.54 | 20.4 | 92.3 | IC50 [10]: 2.35 nM; A2780 SI [10]: 39.3
CC[C@@H](C(=O)[C@@H](C)[C@@H](O)[C@H](C)[C@@H]1O[C@@H]([C@@H](CC)C(=O)O)CC[C@@H]1C)[C@H]1O[C@]2(C=C[C@@H](NC(=O)Nc3ccc(F)cc3)[C@]3(CC[C@@](C)([C@H]4CC[C@](O)(CC)[C@H](C)O4)O3)O2)[C@H](C)C[C@@H]1C [FLC-00363-1] | 0.7 | 44.3 | 1.41 | 37.3 | 1.7 | 11.7 | 5.3 | 19.3 | 3.2 | 27.3 | 2.3 | 4.46 | 14.0 | 13 | 4.8 | 4.06 | 15.3 | 2.78 | 22.4 | 62.2 | IC50 [10]: 2 nM; A2780 SI [10]: 31.1
CC[C@@H](C(=O)[C@@H](C)[C@@H](O)[C@H](C)[C@@H]1O[C@@H]([C@@H](CC)C(=O)O)CC[C@@H]1C)[C@H]1O[C@]2(C=C[C@@H](NC(=S)NC3CCCCC3)[C@]3(CC[C@@](C)([C@H]4CC[C@](O)(CC)[C@H](C)O4)O3)O2)[C@H](C)C[C@@H]1C [FLC-00377-1] | 0.4 | 47.2 | 1.56 | 65.5 | 1.1 | 18.3 | 4.0 | 41.6 | 1.8 | 94.8 | 0.8 | 51.8 | 1.4 | 18.8 | 3.9 | 7.82 | 9.4 | 5.7 | 12.9 | 73.3 | IC50 [10]: 3.55 nM; A2780 SI [10]: 20.6
CC[C@@H](C(=O)[C@@H](C)[C@@H](O)[C@H](C)[C@@H]1O[C@@H]([C@@H](CC)C(=O)O)CC[C@@H]1C)[C@H]1O[C@]2(C=C[C@@H](NC(=S)Nc3cc(C(F)(F)F)cc(C(F)(F)F)c3)[C@]3(CC[C@@](C)([C@H]4CC[C@](O)(CC)[C@H](C)O4)O3)O2)[C@H](C)C[C@@H]1C [FLC-00348-1] | 0.8 | 60.6 | 46.6 | 2590 | 1.1 | 188 | 15.0 | 2320 | 1.2 | 3320 | 0.9 | 537 | 5.3 | 1150 | 2.5 | 379 | 7.4 | 972 | 2.9 | 2830 | IC50 [10]: 57 nM; A2780 SI [10]: 49.6
